In publication PMC6395927, “Rufomycin Targets ClpC1 Proteolysis in Mycobacterium tuberculosis and M. abscessus” (Antimicrobial Agents and Chemotherapy, 2019):
≈ marks a conversion by molar mass, not a printed value. Where two headings read alike, the source gives them in different places. Numbered stars: 1 amine (or outer) side, 2 acyl side, 3 side chain; on linkers, the order of the positions; unused ones are H or OH. Square brackets hold non-standard residues; d marks the D form. Peptide text beside a SMILES is read from it. ξ: configuration not given here. Trp(1-(1,1-Me2-allyl)) = C=CC(C)(C)n1cc(C[C@H](N)C(=O)O)c2ccccc21; X4 = CC(C)(C1CO1)n1cc(C[C@H](N[*:1])C(=O)[*:2])c2ccccc21; Tyr(3-NO2) = N[C@@H](Cc1ccc(O)c([N+](=O)[O-])c1)C(=O)O; X3 = CC(CC(C(=O)[*:2])N(C)[*:1])C(=O)O; Gly(E-crotyl) = C/C=C/C[C@H](N)C(=O)O; NMeL = CN[C@@H](CC(C)C)C(=O)O; ξNMeL = CNC(CC(C)C)C(=O)O

Key:
[1] = test system: M. tuberculosis strain H37Rv (ATCC 27294); assay: microbe, parasite or virus in culture; assay type: cell-based, Mycobacterium tuberculosis
[2] = test system: J774A.1 macrophage (ATCC TIB-67); assay: Cytotoxicity in mammalian cells (resazurin); assay type: cell-based, murine; conditions: Mus musculus, J774.A1; J774, 72 h
[3] = test system: Vero cell (ATCC CRL-81); assay: cells; assay type: cell-based; conditions: Chlorocebus sabaeus, 72 h
[4] = test system: M. abscessus (ATCC 19977); assay: microbe, parasite or virus in culture; assay type: cell-based, Mycobacterium abscessus; conditions: Mycobacteroides abscessus
[5] = test system: M. chelonae (ATCC 35752); assay: microbe, parasite or virus in culture; assay type: cell-based, Mycobacterium chelonae; conditions: Mycobacteroides chelonae, ATCC35752
[6] = test system: M. avium (ATCC 15769); assay: microbe, parasite or virus in culture; assay type: cell-based; conditions: Mycobacterium avium, ATCC15769
[7] = test system: M. tuberculosis 5 global clade representatives; assay: microbe, parasite or virus in culture; assay type: cell-based; conditions: Mycobacterium tuberculosis, read-out: MICs
[8] = test system: M. smegmatis (ATCC 700084); assay: microbe, parasite or virus in culture; assay type: cell-based; conditions: Mycolicibacterium smegmatis, ATCC700084
[9] = test system: M. bovis (ATCC 35734); assay: microbe, parasite or virus in culture; assay type: cell-based; conditions: Mycobacterium tuberculosis variant bovis, ATCC35734
[10] = test system: M. kansasii (ATCC 12478); assay: microbe, parasite or virus in culture; assay type: cell-based; conditions: Mycobacterium kansasii, ATCC12478
[11] = test system: M. marinum (ATCC 927); assay: microbe, parasite or virus in culture; assay type: cell-based; conditions: Mycobacterium marinum, ATCC927
[12] = test system: Escherichia coli (ATCC 25922); assay: MIC against nonmycobacteria (OD570); assay type: cell-based; conditions: ATCC25922, E. coli
Description: (§1) Standard compounds used were ampicillin (AMP) and gentamicin (GEN). […] Amphotericin B (AmphB) and ketoconazole (KETO) were used as standard compounds.

[13] = test system: Staphylococcus aureus (ATCC 29213); assay: MIC against nonmycobacteria (OD570); assay type: cell-based; conditions: ATCC29213, S. aureus
Description: as §1

[14] = test system: Candida albicans (ATCC 10231); assay: MIC against nonmycobacteria (OD570); assay type: cell-based; conditions: ATCC10231, C. albicans
Description: as §1

[15] = ATCC19977, M. abscessus, read-out: MIC
[16] = Mycobacterium tuberculosis, read-out: MIC against M. tuberculosis

COc1c(N2C[C@@H]3CCCN[C@@H]3C2)c(F)cc2c(=O)c(C(=O)O)cn(C3CC3)c12 [MXF, moxifloxacin]
MIC ([1]; Mycobacterium tuberculosis): 0.26 µM (≈ 0.104 µg/mL)

CO[C@H]1/C=C/O[C@@]2(C)Oc3c(C)c(O)c4c(O)c(c(/C=N/N5CCN(C)CC5)c(O)c4c3C2=O)NC(=O)/C(C)=C\C=C\[C@H](C)[C@H](O)[C@@H](C)[C@@H](O)[C@@H](C)[C@H](OC(C)=O)[C@@H]1C [RIF, rifampin]
IC50 [2]: 95 µM | IC50 [3]: 120 µM | MIC ([4]; ATCC19977): > 4 µM | MIC [5]: > 4 µM | MIC [6]: 0.16 µM (≈ 0.132 µg/mL) | MIC [7]: 0.01 to 0.027 µM (≈ 0.00823 to 0.0222 µg/mL) | MIC [8]: > 120 µM | MIC ([1]; Mycobacterium tuberculosis): 0.04 µM (≈ 0.0329 µg/mL) | MIC [9]: < 0.02 µM | MIC [10]: 0.15 µM (≈ 0.123 µg/mL) | MIC [11]: 0.05 µM (≈ 0.0411 µg/mL)

O=[N+]([O-])c1cn2c(n1)OC[C@@H](OCc1ccc(OC(F)(F)F)cc1)C2 [PA824, pretomanid]
MIC [4, 15]: > 8 µM | MIC ([5]; M. chelonae, read-out: MIC): > 8 µM | MIC ([6]; M. avium, read-out: MIC): > 8 µM | MIC [7]: 0.03 to 0.1 µM (≈ 0.0108 to 0.0359 µg/mL) | MIC ([1]; Mycobacterium tuberculosis): 0.04 µM (≈ 0.0144 µg/mL) | MIC [9]: 0.1 µM (≈ 0.0359 µg/mL) | MIC ([10]; M. kansasii, read-out: MIC): 4.7 µM (≈ 1.69 µg/mL) | MIC ([11]; M. marinum, read-out: MIC): > 8 µM

NNC(=O)c1ccncc1 [INH, isoniazid]
MIC [4, 15]: > 8 µM | MIC ([5]; M. chelonae, read-out: MIC): > 8 µM | MIC ([6]; M. avium, read-out: MIC): > 8 µM | MIC [7]: 0.25 to 0.47 µM (≈ 0.0343 to 0.0645 µg/mL) | MIC ([8]; M. smegmatis, read-out: MIC): 360 µM (≈ 49.4 µg/mL) | MIC ([1]; Mycobacterium tuberculosis): 0.23 µM (≈ 0.0315 µg/mL) | MIC [9]: 0.48 µM (≈ 0.0658 µg/mL) | MIC ([10]; M. kansasii, read-out: MIC): 3.84 µM (≈ 0.527 µg/mL) | MIC ([11]; M. marinum, read-out: MIC): > 8 µM

C/C=C/C[C@@H]1NC(=O)[C@H](CC(C)C)NC(=O)C(CC(C)C)N(C)C(=O)[C@H](C)NC(=O)[C@H](Cc2ccc(O)c([N+](=O)[O-])c2)NC(=O)[C@H](CC(C)C)NC(=O)[C@H](Cc2cn(C(C)(C)C3CO3)c3ccccc23)NC1=O (stereo partly shown) [IV] (cyclo(A[ξNMeL]L[Gly(E-crotyl)][X4]L[Tyr(3-NO2)]))
MIC [1, 16]: 0.58 µM (≈ 0.588 µg/mL)

C/C=C/C[C@@H]1NC(=O)[C@H](CC(C)C)NC(=O)C(CC(C)C)N(C)C(=O)[C@H](C)NC(=O)[C@H](Cc2ccc(O)c([N+](=O)[O-])c2)NC(=O)[C@H](CC(C)C)N(C)C(=O)[C@H](Cc2cn(C(C)(C)C3CO3)c3ccccc23)NC1=O (stereo partly shown) [V] (cyclo(A[ξNMeL]L[Gly(E-crotyl)][X4][NMeL][Tyr(3-NO2)]))
MIC [1, 16]: 0.07 µM (≈ 0.072 µg/mL)

COc1nc2ccc(Br)cc2cc1[C@@H](c1ccccc1)[C@@](O)(CCN(C)C)c1cccc2ccccc12 [BDQ, bedaquiline]
IC50 [2]: 20 µM | IC50 [3]: 27 µM | MIC [4, 15]: 0.96 µM (≈ 0.533 µg/mL) | MIC ([5]; M. chelonae, read-out: MIC): 0.46 µM (≈ 0.256 µg/mL) | MIC ([6]; M. avium, read-out: MIC): 0.049 µM (≈ 0.0272 µg/mL) | MIC [7]: 0.017 to 0.11 µM (≈ 0.00944 to 0.0611 µg/mL) | MIC ([1]; Mycobacterium tuberculosis): 0.13 µM (≈ 0.0722 µg/mL) | MIC [9]: 0.1 µM (≈ 0.0556 µg/mL) | MIC ([10]; M. kansasii, read-out: MIC): 0.029 µM (≈ 0.0161 µg/mL) | MIC ([11]; M. marinum, read-out: MIC): 0.29 µM (≈ 0.161 µg/mL)

CNC(C)C1CCC(N)C(OC2C(N)CC(N)C(OC3OCC(C)(O)C(NC)C3O)C2O)O1 (stereo not shown) [GEN, gentamicin]
MIC [12]: 0.23 µM (≈ 0.11 µg/mL) | MIC [13]: 0.33 µM (≈ 0.158 µg/mL)

CO[C@H](c1ccccc1)[C@@H]1NC(=O)[C@H](C)NC(=O)[C@H](C[C@@H](C)CO)N(C)C(=O)[C@H]([C@H](O)c2cn(C(C)(C)[C@@H]3CO3)c3ccccc23)NC(=O)[C@H]([C@H](C)C=C(C)C)NC(=O)[C@H](CC(C)C)N(C)C(=O)[C@H](C(C)C)NC1=O (stereo in doubt) [CYMA, cyclomarin A]
IC50 [2]: 19 µM | MIC [12]: > 10 µM | MIC [14]: > 10 µM | MIC [13]: > 10 µM | IC50 [3]: > 50 µM | MIC [4, 15]: > 5 µM | MIC ([5]; M. chelonae, read-out: MIC): > 5 µM | MIC ([6]; M. avium, read-out: MIC): 4.85 µM (≈ 5.06 µg/mL) | MIC [7]: 0.012 to 0.079 µM (≈ 0.0125 to 0.0824 µg/mL) | MIC ([8]; M. smegmatis, read-out: MIC): 1.6 µM (≈ 1.67 µg/mL) | MIC ([1]; Mycobacterium tuberculosis): 0.094 µM (≈ 0.0981 µg/mL) | MIC [9]: < 0.02 µM | MIC ([10]; M. kansasii, read-out: MIC): 1.11 µM (≈ 1.16 µg/mL) | MIC ([11]; M. marinum, read-out: MIC): 0.58 µM (≈ 0.605 µg/mL)

C=CC(C)(C)n1cc(C[C@@H]2NC(=O)[C@H](C/C=C/C)NC(=O)[C@H](CC(C)C)N3CC(C)CC(C3=O)N(C)C(=O)[C@H](C)NC(=O)[C@H](Cc3ccc(O)c([N+](=O)[O-])c3)NC(=O)[C@H](CC(C)C)N(C)C2=O)c2ccccc21 (stereo partly shown) [III]
MIC [1, 16]: 1 µM (≈ 1.01 µg/mL)

CC(=O)N1CCN(c2ccc(OCC3COC(Cn4ccnc4)(c4ccc(Cl)cc4Cl)O3)cc2)CC1 (stereo not shown) [KETO, ketoconazole]
MIC [14]: 0.98 µM (≈ 0.521 µg/mL)

C[C@@H]1[C@H](O)[C@@H](C)/C=C/C=C/C=C/C=C/C=C/C=C/C=C/[C@H](O[C@@H]2O[C@H](C)[C@@H](O)[C@H](N)[C@@H]2O)C[C@@H]2O[C@](O)(C[C@@H](O)C[C@@H](O)[C@H](O)CC[C@@H](O)C[C@@H](O)CC(=O)O[C@H]1C)C[C@H](O)[C@H]2C(=O)O [AmphB, amphotericin B]
MIC [14]: 2.6 µM (≈ 2.4 µg/mL)

[H]/N=C(/N)N[C@H]1[C@H](O)[C@@H](O)[C@H](O[C@@H]2O[C@@H](C)[C@](O)(C=O)[C@H]2O[C@@H]2O[C@@H](CO)[C@H](O)[C@@H](O)[C@@H]2NC)[C@@H](N/C(N)=N\[H])[C@@H]1O [STR, streptomycin]
MIC ([1]; Mycobacterium tuberculosis): 0.15 µM (≈ 0.0872 µg/mL)

CC1(C)S[C@@H]2[C@H](NC(=O)[C@H](N)c3ccccc3)C(=O)N2[C@H]1C(=O)O [AMP, ampicillin]
MIC [12]: 16 µM (≈ 5.59 µg/mL) | MIC [13]: 6.1 µM (≈ 2.13 µg/mL)

C/C=C/C[C@@H]1NC(=O)[C@H](CC(C)C)N2C(=O)C(C[C@@H](C)[C@H]2O)N(C)C(=O)[C@H](C)NC(=O)[C@H](Cc2ccc(O)c([N+](=O)[O-])c2)NC(=O)[C@H](CC(C)C)N(C)C(=O)[C@H](Cc2cn(C(C)(C)C3CO3)c3ccccc23)NC1=O (stereo partly shown) [II]
MIC [1, 16]: 0.05 µM (≈ 0.0521 µg/mL)

CC(C)/N=c1\cc2n(-c3ccc(Cl)cc3)c3ccccc3nc-2cc1Nc1ccc(Cl)cc1 [CLO, clofazimine]
MIC [4, 15]: 9.23 µM (≈ 4.37 µg/mL) | MIC ([5]; M. chelonae, read-out: MIC): 10 µM (≈ 4.73 µg/mL) | MIC ([6]; M. avium, read-out: MIC): < 0.2 µM | MIC ([8]; M. smegmatis, read-out: MIC): 2.39 µM (≈ 1.13 µg/mL) | MIC [9]: < 0.2 µM | MIC ([10]; M. kansasii, read-out: MIC): < 0.2 µM | MIC ([11]; M. marinum, read-out: MIC): 0.34 µM (≈ 0.161 µg/mL)

C=CC(C)(C)n1cc(C[C@@H]2NC(=O)[C@H](C/C=C/C)NC(=O)[C@H](CC(C)C)NC(=O)C(CC(C)C)N(C)C(=O)[C@H](C)NC(=O)[C@H](Cc3ccc(O)cc3)NC(=O)[C@H](CC(C)C)N(C)C2=O)c2ccccc21 (stereo partly shown) [VI] (cyclo(A[ξNMeL]L[Gly(E-crotyl)][Trp(1-(1,1-Me2-allyl))][NMeL]Y))
MIC [1, 16]: > 50 µM

C/C=C/C[C@@H]1NC(=O)[C@H](CC(C)C)NC(=O)C(CC(C)C(=O)O)N(C)C(=O)[C@H](C)NC(=O)[C@H](Cc2ccc(O)c([N+](=O)[O-])c2)NC(=O)[C@H](CC(C)C)N(C)C(=O)[C@H](Cc2cn(C(C)(C)C3CO3)c3ccccc23)NC1=O (stereo partly shown) [VII] (cyclo(A[X3]L[Gly(E-crotyl)][X4][NMeL][Tyr(3-NO2)]))
MIC [1, 16]: 1 µM (≈ 1.06 µg/mL)

CC(=O)NC[C@H]1CN(c2ccc(N3CCOCC3)c(F)c2)C(=O)O1 [LZD, linezolid]
MIC [7]: 0.41 to 1.6 µM (≈ 0.138 to 0.54 µg/mL) | MIC ([1]; Mycobacterium tuberculosis): 1.8 µM (≈ 0.607 µg/mL)

capreomycin
MIC [1]: 0.39 µM
